Source: the NIST ThermoML archive (doi:10.1021/je600519p)

Assay: xn = mol fraction of the nth substance listed
Settings: 101 kPa, Liquid

CCOC(=O)OCC [diethyl carbonate] + CCCCCCO
Settings | mass density, 293.15 K [kg/m3] | mass density, 303.15 K [kg/m3] | speed of sound, 293.15 K [m/s] | speed of sound, 303.15 K [m/s] | viscosity, 293.15 K [mPa·s] | viscosity, 303.15 K [mPa·s]
x1 = 0.0502 | 825.96 | 818.55 | 1301 | 1267 | 4.731 | 3.486
x1 = 0.1123 | 834.86 | 827.16 | 1291 | 1256 | 4.164 | 3.03
x1 = 0.1499 | 840.29 | 832.48 | 1285 | 1249 | 3.715 | 2.796
x1 = 0.2103 | 849.1 | 841.04 | 1275 | 1240 | 3.178 | 2.403
x1 = 0.2508 | 855.05 | 846.79 | 1268 | 1234 | 2.837 | 2.165
x1 = 0.3121 | 864.19 | 855.69 | 1259 | 1225 | 2.382 | 1.859
x1 = 0.3576 | 871.02 | 862.23 | 1252 | 1217 | 2.078 | 1.621
x1 = 0.4113 | 879.15 | 870.21 | 1245 | 1210 | 1.757 | 1.414
x1 = 0.4632 | 887.08 | 877.88 | 1239 | 1204 | 1.488 | 1.22
x1 = 0.5111 | 894.51 | 885.13 | 1234 | 1200 | 1.247 | 1.063
x1 = 0.552 | 900.88 | 891.35 | 1230 | 1197 | 1.115 | 0.951
x1 = 0.6008 | 908.59 | 898.87 | 1226 | 1194 | 0.956 | 0.844
x1 = 0.6498 | 916.39 | 906.42 | 1222 | 1193 | 0.863 | 0.811
x1 = 0.7108 | 926.19 | 915.93 | 1219 | 1192 | 0.859 | 0.804
x1 = 0.7554 | 933.45 | 923.08 | 1216 | 1191 | 0.84 | 0.774
x1 = 0.8112 | 942.65 | 932.03 | 1213 | 1190 | 0.831 | 0.748
x1 = 0.8501 | 949.13 | 938.29 | 1211 | 1189 | 0.825 | 0.73
x1 = 0.9002 | 957.5 | 946.57 | 1208 | 1188 | 0.818 | 0.724
x1 = 0.9555 | 966.89 | 955.77 | 1206 | 1187 | 0.803 | 0.713
